{
  "source": "ChEMBL document CHEMBL6109120",
  "about": "“Discovery of Novel SIK2/3 Inhibitors for the Potential Treatment of MEF2C+ Acute Myeloid Leukemia (AML)” (J Med Chem, 2025)",
  "key": {"[1]": {"assay": "Binding affinity to human ABL by KINOMEscan assay"}, "[2]": {"target": "Serine/threonine-protein kinase SIK2 (Homo sapiens, UniProt Q9H0K1)", "sequence (Q9H0K1 whole entry)": "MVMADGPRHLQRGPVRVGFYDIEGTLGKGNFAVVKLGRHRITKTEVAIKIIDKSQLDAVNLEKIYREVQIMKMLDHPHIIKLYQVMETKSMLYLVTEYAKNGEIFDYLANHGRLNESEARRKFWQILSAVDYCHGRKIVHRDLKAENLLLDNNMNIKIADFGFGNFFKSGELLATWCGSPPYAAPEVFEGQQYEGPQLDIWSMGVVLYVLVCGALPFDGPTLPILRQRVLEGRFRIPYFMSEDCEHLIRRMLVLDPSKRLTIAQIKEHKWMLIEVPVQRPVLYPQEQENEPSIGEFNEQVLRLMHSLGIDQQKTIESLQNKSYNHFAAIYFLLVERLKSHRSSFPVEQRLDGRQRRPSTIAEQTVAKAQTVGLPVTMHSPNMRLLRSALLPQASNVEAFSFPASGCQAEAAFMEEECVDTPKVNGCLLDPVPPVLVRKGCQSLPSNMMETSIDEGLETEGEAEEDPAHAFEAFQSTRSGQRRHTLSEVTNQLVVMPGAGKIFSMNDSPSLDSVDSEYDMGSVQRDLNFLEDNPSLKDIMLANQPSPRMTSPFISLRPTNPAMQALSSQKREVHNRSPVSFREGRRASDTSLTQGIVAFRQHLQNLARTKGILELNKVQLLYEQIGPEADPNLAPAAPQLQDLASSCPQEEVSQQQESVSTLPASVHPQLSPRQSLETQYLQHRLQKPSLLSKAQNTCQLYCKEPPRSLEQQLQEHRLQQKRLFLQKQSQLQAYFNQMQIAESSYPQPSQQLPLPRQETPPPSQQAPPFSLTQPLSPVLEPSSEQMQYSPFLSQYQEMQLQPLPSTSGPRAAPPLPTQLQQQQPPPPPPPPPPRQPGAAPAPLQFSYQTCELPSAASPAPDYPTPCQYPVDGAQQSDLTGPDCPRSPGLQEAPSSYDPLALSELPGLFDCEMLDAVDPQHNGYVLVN", "assay": "Inhibition of recombinant full length human SIK2 assessed as luminescence signal using AMARAtide/ATP as substrate measured after 120 mins by microplate reader"}, "[3]": {"target": "Tyrosine-protein kinase Lck (Homo sapiens, UniProt P06239)", "sequence (P06239 whole entry)": "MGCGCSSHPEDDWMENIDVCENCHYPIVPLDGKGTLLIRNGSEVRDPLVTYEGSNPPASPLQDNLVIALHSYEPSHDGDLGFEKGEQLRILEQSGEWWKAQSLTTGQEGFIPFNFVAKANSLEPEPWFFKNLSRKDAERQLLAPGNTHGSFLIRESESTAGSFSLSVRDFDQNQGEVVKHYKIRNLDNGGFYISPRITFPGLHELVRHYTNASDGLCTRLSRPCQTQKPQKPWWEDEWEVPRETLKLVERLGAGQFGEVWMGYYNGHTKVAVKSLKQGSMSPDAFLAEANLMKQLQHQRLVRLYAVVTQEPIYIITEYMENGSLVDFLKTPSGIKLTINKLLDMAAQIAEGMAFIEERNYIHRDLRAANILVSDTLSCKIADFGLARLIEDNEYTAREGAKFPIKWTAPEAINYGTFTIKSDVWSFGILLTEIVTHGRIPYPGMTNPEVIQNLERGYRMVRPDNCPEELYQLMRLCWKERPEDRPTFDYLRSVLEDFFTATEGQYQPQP", "assay": "Binding affinity to human LCK by KINOMEscan assay"}, "[4]": {"target": "Serine/threonine-protein kinase SIK3 (Homo sapiens, UniProt Q9Y2K2)", "sequence (Q9Y2K2 whole entry)": "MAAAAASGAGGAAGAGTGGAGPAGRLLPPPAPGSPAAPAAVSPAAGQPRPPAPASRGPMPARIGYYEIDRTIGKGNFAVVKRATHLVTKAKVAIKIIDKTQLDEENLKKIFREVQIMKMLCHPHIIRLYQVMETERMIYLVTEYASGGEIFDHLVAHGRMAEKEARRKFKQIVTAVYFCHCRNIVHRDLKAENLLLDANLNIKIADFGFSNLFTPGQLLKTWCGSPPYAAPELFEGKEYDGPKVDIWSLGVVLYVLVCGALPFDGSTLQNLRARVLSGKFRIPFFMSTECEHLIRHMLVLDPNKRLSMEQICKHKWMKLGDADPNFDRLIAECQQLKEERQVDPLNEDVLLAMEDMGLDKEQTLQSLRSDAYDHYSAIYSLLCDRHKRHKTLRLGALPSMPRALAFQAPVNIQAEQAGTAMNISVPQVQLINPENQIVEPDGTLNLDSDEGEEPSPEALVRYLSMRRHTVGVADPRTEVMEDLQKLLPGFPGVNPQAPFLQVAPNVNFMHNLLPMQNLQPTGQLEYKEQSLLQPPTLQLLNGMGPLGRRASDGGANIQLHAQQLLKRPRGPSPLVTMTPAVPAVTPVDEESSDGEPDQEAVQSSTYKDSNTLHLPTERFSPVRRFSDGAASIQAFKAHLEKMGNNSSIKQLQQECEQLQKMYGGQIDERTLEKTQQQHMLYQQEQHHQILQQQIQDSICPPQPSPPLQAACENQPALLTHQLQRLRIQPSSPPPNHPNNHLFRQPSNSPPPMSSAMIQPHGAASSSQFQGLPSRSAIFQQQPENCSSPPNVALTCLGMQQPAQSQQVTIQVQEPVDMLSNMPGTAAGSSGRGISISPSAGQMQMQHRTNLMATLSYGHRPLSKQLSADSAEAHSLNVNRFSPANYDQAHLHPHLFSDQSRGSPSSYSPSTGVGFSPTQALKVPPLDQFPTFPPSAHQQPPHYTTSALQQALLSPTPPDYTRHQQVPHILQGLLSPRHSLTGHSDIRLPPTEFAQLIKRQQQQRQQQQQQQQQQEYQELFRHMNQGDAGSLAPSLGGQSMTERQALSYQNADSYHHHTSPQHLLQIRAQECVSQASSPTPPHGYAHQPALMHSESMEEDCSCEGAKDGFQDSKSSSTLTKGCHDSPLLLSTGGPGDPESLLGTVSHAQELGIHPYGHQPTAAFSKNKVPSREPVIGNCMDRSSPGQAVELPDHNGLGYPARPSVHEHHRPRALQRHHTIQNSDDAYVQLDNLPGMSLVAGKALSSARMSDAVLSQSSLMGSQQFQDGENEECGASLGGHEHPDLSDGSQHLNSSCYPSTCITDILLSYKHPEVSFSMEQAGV", "assay": "Inhibition of recombinant human SIK3 assessed as luminescence signal using AMARAtide/ATP as substrate measured after 120 mins by microplate reader"}, "[5]": {"target": "Serine/threonine-protein kinase SIK1 (Homo sapiens, UniProt P57059)", "sequence (P57059 whole entry)": "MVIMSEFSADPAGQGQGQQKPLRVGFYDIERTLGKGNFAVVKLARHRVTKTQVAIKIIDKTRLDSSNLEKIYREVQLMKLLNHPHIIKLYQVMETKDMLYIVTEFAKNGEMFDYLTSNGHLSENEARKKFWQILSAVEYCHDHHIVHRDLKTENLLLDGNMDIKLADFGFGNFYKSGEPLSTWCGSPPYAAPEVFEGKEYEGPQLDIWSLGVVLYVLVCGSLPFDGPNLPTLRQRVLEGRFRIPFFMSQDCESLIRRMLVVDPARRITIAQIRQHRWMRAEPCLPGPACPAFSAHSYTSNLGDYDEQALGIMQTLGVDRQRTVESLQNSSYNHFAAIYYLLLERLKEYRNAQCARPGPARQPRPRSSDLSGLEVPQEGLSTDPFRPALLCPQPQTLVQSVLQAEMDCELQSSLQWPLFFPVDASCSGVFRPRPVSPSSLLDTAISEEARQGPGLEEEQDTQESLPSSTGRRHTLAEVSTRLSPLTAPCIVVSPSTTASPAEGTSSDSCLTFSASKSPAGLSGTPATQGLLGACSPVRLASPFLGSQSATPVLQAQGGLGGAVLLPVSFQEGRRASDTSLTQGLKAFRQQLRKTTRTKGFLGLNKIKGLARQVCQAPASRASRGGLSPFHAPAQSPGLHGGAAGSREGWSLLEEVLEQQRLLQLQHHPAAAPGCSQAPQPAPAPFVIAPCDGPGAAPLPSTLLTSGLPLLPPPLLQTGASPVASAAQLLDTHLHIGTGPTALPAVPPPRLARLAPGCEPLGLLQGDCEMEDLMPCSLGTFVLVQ", "assay": "Inhibition of human SIK1 (02 to 131) assessed as luminescence signal using AMARAtide/ATP as substrate measured after 120 mins by microplate reader"}},
  "data": [
    {"smiles": "CNC(=O)c1cc(Oc2ccc(NC(=O)Nc3cc(C(C)(C)C)nn3-c3ccc4ncccc4c3)c(F)c2)ccn1", "note": "[REBASTINIB]", "values": [
      {"measurement": "IC50", "setting": "[1]", "value": 26.8, "unit": "nM"}
    ]},
    {"smiles": "COc1cc(-c2cc(-c3cnn(S(C)(=O)=O)c3)cnc2N)cc2c1C(=O)N(CC(F)(F)F)CC2", "values": [
      {"measurement": "IC50", "setting": "[2]", "value": 39, "unit": "nM"}
    ]},
    {"smiles": "Cc1cc(-c2cc(O)ccc2Cl)cc2nnc(Nc3ccc(OCCN4CCCC4)cc3)nc12", "values": [
      {"measurement": "IC50", "setting": "[3]", "value": 2.7, "unit": "nM"}
    ]},
    {"smiles": "COc1cc(-c2cc(-c3cnn(C4CCOCC4)c3)cnc2N)cc2c1C(=O)N(CC#N)CC2", "values": [
      {"measurement": "IC50", "setting": "[2]", "value": 4.9, "unit": "nM"},
      {"measurement": "IC50", "setting": "[4]", "value": 5.7, "unit": "nM"},
      {"measurement": "IC50", "setting": "[5]", "value": 118, "unit": "nM"}
    ]}
  ]
}
